In ChEMBL document CHEMBL4396892, “Estrogen signaling: An emanating therapeutic target for breast cancer treatment” (Eur J Med Chem, 2019) one finds IC50 and Ki data, which are given here for 25 molecules.

Test [1] deals with T1, Aromatase (Homo sapiens, UniProt P11511).
T1 sequence (P11511 whole entry): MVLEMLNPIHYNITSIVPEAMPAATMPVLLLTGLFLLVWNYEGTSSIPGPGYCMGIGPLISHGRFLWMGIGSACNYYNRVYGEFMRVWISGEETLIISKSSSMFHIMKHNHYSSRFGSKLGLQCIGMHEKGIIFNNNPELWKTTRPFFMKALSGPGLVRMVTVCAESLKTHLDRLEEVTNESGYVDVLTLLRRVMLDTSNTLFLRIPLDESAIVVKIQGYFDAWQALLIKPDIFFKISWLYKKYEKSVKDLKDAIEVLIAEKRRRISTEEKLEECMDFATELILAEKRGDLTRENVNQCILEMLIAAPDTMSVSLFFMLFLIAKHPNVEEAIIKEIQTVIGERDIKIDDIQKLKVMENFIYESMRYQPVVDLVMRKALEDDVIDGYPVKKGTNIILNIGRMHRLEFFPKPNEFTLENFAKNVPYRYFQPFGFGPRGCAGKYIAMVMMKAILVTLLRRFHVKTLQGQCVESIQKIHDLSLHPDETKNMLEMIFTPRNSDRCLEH
Type of test: microsomes, Placenta, Microsome.

Test [2] has as its target T2, Steryl-sulfatase (Homo sapiens, UniProt P08842).
T2 sequence (P08842 whole entry): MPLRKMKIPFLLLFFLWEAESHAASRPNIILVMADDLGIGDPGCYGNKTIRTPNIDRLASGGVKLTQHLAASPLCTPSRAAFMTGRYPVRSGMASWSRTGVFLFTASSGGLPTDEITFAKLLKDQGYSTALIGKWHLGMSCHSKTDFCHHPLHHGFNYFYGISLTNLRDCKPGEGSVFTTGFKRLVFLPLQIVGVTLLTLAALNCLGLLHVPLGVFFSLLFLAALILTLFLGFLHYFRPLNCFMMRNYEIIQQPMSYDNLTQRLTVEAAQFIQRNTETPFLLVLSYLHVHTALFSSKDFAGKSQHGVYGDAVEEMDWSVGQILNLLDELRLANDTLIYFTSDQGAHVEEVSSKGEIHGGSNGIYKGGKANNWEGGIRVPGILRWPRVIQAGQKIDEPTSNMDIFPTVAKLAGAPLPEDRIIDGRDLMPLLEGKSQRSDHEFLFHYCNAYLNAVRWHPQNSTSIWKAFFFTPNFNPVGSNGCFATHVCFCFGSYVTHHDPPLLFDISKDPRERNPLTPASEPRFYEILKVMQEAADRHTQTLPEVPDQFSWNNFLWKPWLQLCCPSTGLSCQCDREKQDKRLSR

The target in test [3] is T2, Steryl-sulfatase. This is another data set of the same source.
Test [4] addresses T1, Aromatase. The test is classed as microsomes, Placenta, Microsome. This is another data set of the same source.
In test [5] the target is T1, Aromatase.
For test [6], the target named is T2, Steryl-sulfatase. Type of test: microsomes, Placenta, Microsome.
For test [7], the target named is T2, Steryl-sulfatase. The test is classed as cell-based, HEK293.
Test [8] addresses T2, Steryl-sulfatase. Type of test: cell-based, HEK293. The source holds these as a separate data set.
For test [9], the target named is T3, Estrogen receptor (Homo sapiens, UniProt P03372).
T3 sequence (P03372 whole entry): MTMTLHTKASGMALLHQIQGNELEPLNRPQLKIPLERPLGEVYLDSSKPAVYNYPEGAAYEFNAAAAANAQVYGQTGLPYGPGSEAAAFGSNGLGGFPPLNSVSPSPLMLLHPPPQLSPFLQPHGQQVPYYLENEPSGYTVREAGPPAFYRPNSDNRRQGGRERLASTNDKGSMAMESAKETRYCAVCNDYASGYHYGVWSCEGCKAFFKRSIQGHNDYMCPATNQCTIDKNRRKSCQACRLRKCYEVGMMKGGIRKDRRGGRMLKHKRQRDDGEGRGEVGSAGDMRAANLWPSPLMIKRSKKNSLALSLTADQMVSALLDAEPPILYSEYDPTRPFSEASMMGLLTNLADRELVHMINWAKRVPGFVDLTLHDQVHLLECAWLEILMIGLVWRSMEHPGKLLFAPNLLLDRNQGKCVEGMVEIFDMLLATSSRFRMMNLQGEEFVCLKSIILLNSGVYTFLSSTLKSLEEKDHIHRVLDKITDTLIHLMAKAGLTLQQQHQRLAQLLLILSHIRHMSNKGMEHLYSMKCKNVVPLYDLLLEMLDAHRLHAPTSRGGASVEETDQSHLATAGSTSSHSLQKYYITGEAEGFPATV

Test [10] has as its target T2, Steryl-sulfatase. This is another data set of the same source.
The target in test [11] is T3, Estrogen receptor. The test is classed as cell-based, MCF7.
In another test the test system is MCF7. The test can be described thus: cells. The settings on record: Homo sapiens, MCF7, 72 h. The test is classed as functional, cell-based.
The target of test [12] is T3, Estrogen receptor. This is another data set of the same source.
The target of a further test is Estrogen receptor beta (Homo sapiens, UniProt Q92731). The test is classed as cell-based, MCF7.
Estrogen receptor beta, sequence (Q92731 whole entry): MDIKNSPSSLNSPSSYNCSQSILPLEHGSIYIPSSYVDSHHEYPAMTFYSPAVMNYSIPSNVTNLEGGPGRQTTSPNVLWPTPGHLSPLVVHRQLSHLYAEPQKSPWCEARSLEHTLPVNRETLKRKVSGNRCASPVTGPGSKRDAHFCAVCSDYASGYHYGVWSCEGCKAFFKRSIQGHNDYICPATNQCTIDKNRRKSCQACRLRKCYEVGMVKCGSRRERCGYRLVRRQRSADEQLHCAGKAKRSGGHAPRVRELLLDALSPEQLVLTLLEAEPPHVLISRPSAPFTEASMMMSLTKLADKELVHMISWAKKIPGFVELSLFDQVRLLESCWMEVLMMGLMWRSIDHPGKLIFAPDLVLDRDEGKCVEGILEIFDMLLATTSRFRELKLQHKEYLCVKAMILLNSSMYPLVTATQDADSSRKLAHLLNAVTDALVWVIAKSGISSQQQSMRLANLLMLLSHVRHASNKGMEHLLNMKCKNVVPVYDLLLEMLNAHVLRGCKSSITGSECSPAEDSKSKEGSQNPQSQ
In test [13] the target is RAF proto-oncogene serine/threonine-protein kinase (Homo sapiens, UniProt P04049). The test is classed as cell-based, MCF7.
RAF proto-oncogene serine/threonine-protein kinase, sequence (P04049 whole entry): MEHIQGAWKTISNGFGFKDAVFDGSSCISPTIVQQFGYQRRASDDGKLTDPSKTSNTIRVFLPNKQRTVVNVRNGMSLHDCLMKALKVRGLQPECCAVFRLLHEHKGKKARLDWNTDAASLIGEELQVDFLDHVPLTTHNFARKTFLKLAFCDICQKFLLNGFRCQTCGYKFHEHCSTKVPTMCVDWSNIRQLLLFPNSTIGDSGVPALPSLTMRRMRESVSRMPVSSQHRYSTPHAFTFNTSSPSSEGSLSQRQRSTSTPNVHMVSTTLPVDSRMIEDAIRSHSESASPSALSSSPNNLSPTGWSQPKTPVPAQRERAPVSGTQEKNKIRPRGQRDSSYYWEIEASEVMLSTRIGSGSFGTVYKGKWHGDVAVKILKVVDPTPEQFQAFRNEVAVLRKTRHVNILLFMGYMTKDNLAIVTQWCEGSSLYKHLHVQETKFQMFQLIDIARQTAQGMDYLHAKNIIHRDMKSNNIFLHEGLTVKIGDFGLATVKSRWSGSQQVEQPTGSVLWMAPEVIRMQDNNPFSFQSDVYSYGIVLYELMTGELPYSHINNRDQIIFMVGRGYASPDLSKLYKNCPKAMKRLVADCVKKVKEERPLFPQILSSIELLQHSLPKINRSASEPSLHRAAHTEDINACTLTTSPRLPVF
For test [14], the target named is Receptor tyrosine-protein kinase erbB-2 (Homo sapiens, UniProt P04626).
Receptor tyrosine-protein kinase erbB-2, sequence (P04626 whole entry): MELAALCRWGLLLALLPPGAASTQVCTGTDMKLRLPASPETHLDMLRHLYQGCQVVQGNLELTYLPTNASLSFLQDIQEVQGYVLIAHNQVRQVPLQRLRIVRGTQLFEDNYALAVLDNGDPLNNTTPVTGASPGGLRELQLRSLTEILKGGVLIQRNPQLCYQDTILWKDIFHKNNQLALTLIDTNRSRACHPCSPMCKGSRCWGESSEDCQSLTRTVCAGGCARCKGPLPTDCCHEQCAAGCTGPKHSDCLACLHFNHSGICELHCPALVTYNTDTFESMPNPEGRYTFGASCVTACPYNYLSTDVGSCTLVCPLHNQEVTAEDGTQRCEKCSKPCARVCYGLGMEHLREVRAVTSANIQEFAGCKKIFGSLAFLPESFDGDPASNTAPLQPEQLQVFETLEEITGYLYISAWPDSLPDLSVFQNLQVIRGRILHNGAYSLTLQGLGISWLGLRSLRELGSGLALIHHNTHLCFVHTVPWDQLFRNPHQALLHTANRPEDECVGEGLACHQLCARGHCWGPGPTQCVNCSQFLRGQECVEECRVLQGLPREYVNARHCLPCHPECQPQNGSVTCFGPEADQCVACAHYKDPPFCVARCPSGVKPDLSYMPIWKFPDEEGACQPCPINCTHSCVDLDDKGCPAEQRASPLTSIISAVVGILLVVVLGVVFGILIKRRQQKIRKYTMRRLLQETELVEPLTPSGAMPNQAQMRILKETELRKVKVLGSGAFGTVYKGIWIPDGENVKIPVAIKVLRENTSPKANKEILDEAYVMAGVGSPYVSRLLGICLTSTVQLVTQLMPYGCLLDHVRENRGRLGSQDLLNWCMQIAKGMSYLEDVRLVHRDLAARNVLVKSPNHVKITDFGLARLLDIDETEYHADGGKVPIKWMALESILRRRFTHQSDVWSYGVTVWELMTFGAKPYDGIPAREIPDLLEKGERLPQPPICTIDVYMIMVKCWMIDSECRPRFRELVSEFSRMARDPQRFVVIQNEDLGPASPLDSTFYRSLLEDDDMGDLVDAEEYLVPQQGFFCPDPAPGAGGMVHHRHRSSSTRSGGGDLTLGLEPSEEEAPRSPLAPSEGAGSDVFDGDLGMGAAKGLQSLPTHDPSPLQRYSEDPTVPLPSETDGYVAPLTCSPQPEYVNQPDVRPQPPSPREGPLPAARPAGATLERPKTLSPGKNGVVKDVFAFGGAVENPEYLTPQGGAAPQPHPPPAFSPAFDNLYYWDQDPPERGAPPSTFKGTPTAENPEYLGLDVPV
Test [15] addresses T3, Estrogen receptor. This is another data set of the same source.

Turning to `N#Cc1ccc(N(Cc2ccc(Br)cc2)n2cnnc2)cc1`, the midpoint of inhibition against Aromatase [1], the IC50, lay at 0.4 nM. Molecule `CC(C)(C)c1cc(=O)c2cc(OS(N)(=O)=O)ccc2o1` yielded an IC50 at Steryl-sulfatase [2] of 0.047 nM. In other words, the picomolar range.

For the molecule `CCCCCCCCCc1cc(=O)c2cc(OS(N)(=O)=O)ccc2o1`, at Steryl-sulfatase [2], the IC50 amounted to 0.089 nM. This IC50 is about 1.9-fold higher than that of the molecule before. At Steryl-sulfatase [3], `C[C@]12CC[C@@H]3c4ccc(C(F)(F)S(N)(=O)=O)cc4CC[C@H]3[C@@H]1CCC2=O` registered a Ki of 28000 to 82000 nM. In the case of `COc1ccc2c(c1)C(N)=C(Cc1ccncc1)C2=O`, the IC50 against Aromatase [4] was found to be 100 nM.

For `CC/C(=C(\c1ccc(OCCN(C)C)cc1)c1ccc(OS(N)(=O)=O)cc1)c1ccccc1`, the Ki at Steryl-sulfatase [3] is above 500000 nM. On the same count and under the same terms, under `CC/C(=C(/c1ccc(OCCN(C)C)cc1)c1ccc(OS(N)(=O)=O)cc1)c1ccccc1` stands 35900 nM. In turn, `N#Cc1ccc2sc(C34CC5CC(CC(C5)C3)C4)cc(=O)c2c1` showed an IC50 against Steryl-sulfatase [3] of 180 nM. That is a sub-micromolar value. At Aromatase [5], `C[C@]12CCC(=O)C=C1C=C(CCc1ccccc1)[C@@H]1[C@@H]2CC[C@]2(C)C(=O)CC[C@@H]12` returned a Ki of 174 nM.

As to `CCCCCCCCCCCCCC(=O)NCc1ccc(OS(N)(=O)=O)cc1`, inhibition against Steryl-sulfatase [6] was half-maximal at 72 nM (IC50).

In the case of `CC(C)(C)c1ccc(C[C@]2(O)CC[C@H]3[C@@H]4CC=C5C[C@@H](OS(N)(=O)=O)CC[C@]5(C)[C@H]4CC[C@@]32C)cc1`, the IC50 at Steryl-sulfatase [7] turned out to be 46 nM; at Steryl-sulfatase [8], 14 nM. Consider `CC(C)(C#N)c1cc(CSc2ccc(OS(N)(=O)=O)cc2)cc(Cn2cncn2)c1`, for which the midpoint of inhibition against Estrogen receptor [9], the IC50, lay at 3.5 nM. For `COc1c2c(c(O)c3c1C(=O)c1cc(C)c(O)cc1C3=O)-c1c(cc(/C=N/NC(=S)NC3CCCCC3)c(C(=O)O)c1O)CC2`, on Steryl-sulfatase [10], the half-maximal inhibitory concentration (IC50) is 460 nM and affinity was put at a Ki of 350 nM.

`C/C=C1/[C@H](O)C[C@H]2[C@@H]3CCc4cc(OC)ccc4[C@H]3CC[C@]12C` returned an IC50 against Estrogen receptor [11] of 5490 nM. This lies in the single-digit micromolar range.

As for `N#Cc1ccc(N(Cc2ccc(OS(N)(=O)=O)cc2F)n2cnnc2)cc1`, at Steryl-sulfatase [3], half-maximal inhibition (IC50) was put at 2.5 nM. Regarding `C[C@]12CC[C@@H]3c4ccc(NC(=O)C(F)(F)F)cc4CC[C@H]3[C@@H]1CCC2=O`, the midpoint of inhibition against Steryl-sulfatase [3], the IC50, lay at 8700 nM. In turn, `O=[N+]([O-])c1ccc(N(Cc2ccc(Br)cc2)n2cnnc2)cc1` displayed an IC50 at Aromatase [1] of 0.12 nM.

The molecule `CCCCCCCCCCCCC(=O)NCCc1ccc(OS(N)(=O)=O)cc1` showed an IC50 against Steryl-sulfatase [3] of 55.8 nM. On to `CC(O)[C@@]12C[C@@H]1C[C@H]1[C@@H]3CCc4cc(O)ccc4[C@H]3CC[C@]12C` (some centres undefined), for which the IC50 in the test with MCF7 amounted to 3000 nM. The molecule `Oc1ccc2c(c1)O[C@@H](c1ccccc1)C[C@@H]2n1ccnc1` returned an IC50 against Aromatase [5] of 41 nM. That is a double-digit nanomolar value. As to `CC/C(=C(\c1ccc(O)cc1)c1ccc(OCCNCCCCCCNC(=O)CCC2=[N+]3C(=CC4=CC=C(C)C4[B-]3(F)F)C=C2)cc1)c1ccccc1` (centres undefined), the IC50 on Estrogen receptor [12] is 30 nM. This counts as double-digit nanomolar.

In the case of `O=c1oc2cc(OP(=O)(O)O)ccc2c2c1CCCC2`, the IC50 against Steryl-sulfatase [3] worked out at 37800 nM. `O=c1cc(-c2ccccc2)nc2ccc(-c3ccccc3O)cn12` registered an IC50 at Estrogen receptor [9] of 250000 nM. Regarding `Cc1c(-c2ccc(O)cc2)nn(-c2ccc(O)cc2)c1-c1ccc(OCCN2CCCCC2)cc1`, the Ki on Estrogen receptor beta came to 1800 nM. Turning to `CO[C@H]1/C=C\C=C(/C)C(=O)NC2=CC(=O)C(NC/C=C/C[C@@H]3C[C@H]4[C@@H]5CCc6cc(O)ccc6[C@H]5CC[C@]4(C)[C@H]3O)=C(C[C@@H](C)C[C@H](OC)[C@H](O)[C@@H](C)/C=C(\C)[C@@H]1OC(N)=O)C2=O` (stereo in doubt), the results for the IC50 (in test [13]; in test [14]; on Estrogen receptor [15]) were 1500 nM, 100 nM and 80 nM, respectively.

Broadly, the IC50 is the concentration that gives 50% inhibition. Lower therefore signals greater potency. What is called Ki is a measure of affinity in units of concentration, obtained from inhibition or displacement. A higher Ki goes with a looser hold on the target.
